Patent US12090225B2 (Avalyn Pharma Inc., priority 2018, dated 2024)

How the values were obtained:
[1] = Therapeutic silica model: dose levels and lung pharmacokinetic comparison; assay type: in vivo, C57BL/6 mice; conditions: Oral Gavage (PO) 30.0 mg/kg; mice
Protocol: Briefly, acclimated 20-22 g female C57BL/6 mice were administered silica on day 1 by the intratracheal route. On the tenth day, treatment was initiated with either saline or nintedanib. […] Sham and silica control groups received saline either IN or PO. Five animals were enrolled into sham groups, 10 animals enrolled into each PO dose groups, and 13 animals were enrolled into each IN dosing group. […] All animals were euthanized on day 30d. Body weights were collected throughout the study, with lung weights at termination. Flexivent was performed to determine elastance (lung function; Table 59). Left lungs were extracted, stained as assessed for parenchymal collagen (Table 60) and α-smooth muscle actin (αSMA; Table 61), while right lungs were assessed for interleukin-1β (IL-1β; Table 62).
Intranasal (IN) dose levels were selected by comparing lung pharmacokinetics following IN dosing to lung pharmacokinetics determined following 30 mg/kg oral gavage (PO).

[2] = Therapeutic bleomycin model: dose levels and lung pharmacokinetic comparison; assay type: in vivo, Sprague Dawley rats; conditions: rat
[3] = Human inhaled dose projection vs Ofev 150 mg oral; conditions: human projection

| SMILES | Lung AUC [1] [mg·h/kg] | Lung Cmax [1] [µg/g] | Lung AUC ([2]; Oropharyngeal (OP) 0.05 mg/kg) [mg·h/kg] | Lung Cmax ([2]; Oropharyngeal (OP) 0.05 mg/kg) [µg/g] | Lung AUC ([2]; Oropharyngeal (OP) 0.25 mg/kg) [mg·h/kg] | Lung Cmax ([2]; Oropharyngeal (OP) 0.25 mg/kg) [µg/g] | Lung AUC ([2]; Oropharyngeal (OP) 0.375 mg/kg) [mg·h/kg] | Lung Cmax ([2]; Oropharyngeal (OP) 0.375 mg/kg) [µg/g] | device loaded dose resulting in the same lung AUC as the 150 mg oral dose [3] [mg] | device loaded dose resulting in the same plasma AUC as a 150 mg oral dose [3] [mg] |
| --- | --- | --- | --- | --- | --- | --- | --- | --- | --- | --- |
| COC(=O)c1ccc2c(c1)NC(=O)/C2=C(\Nc1ccc(N(C)C(=O)CN2CCN(C)CC2)cc1)c1ccccc1 [Nintedanib HBr] | 7.4 | 1.1 | 1.6 | 1.4 | 7.8 | 7.0 | 11.6 | 10.5 | – | – |
| COC(=O)c1ccc2c(c1)NC(=O)/C2=C(\Nc1ccc(N(C)C(=O)CN2CCN(C)CC2)cc1)c1ccccc1 [Nintedanib, methyl (3Z)-3-[[4-[methyl-[2-(4-methylpiperazin-1-yl)acetyl]amino]anilino]-phenylmethylidene]-2-oxo-1H-indole-6-carboxylate] | – | – | – | – | – | – | – | – | 0.04 | 0.42 |
